Measured values published in patent publication US6924302B2, “Substituted triazole diamine derivatives as kinase inhibitors” (Ortho McNeil Pharmaceutical, Inc., priority 2000, dated 2005).
Like-named read-outs stand apart in the source and are kept apart here.

How the values were obtained:
[1] = molecular target: T1, Calmodulin Kinase (calmodulin-dependent protein kinase 2) (Rattus norvegicus, UniProt P11275); test: Kinase Selectivity Assay Calmodulin Kinase; type: biochemical; settings: Kinase Selectivity, Tables 2a-2k; read-out: Calmodulin Kinase 2 IC50
T1 construct: a truncated version of the alpha subunit of the rat protein; purchased New England Biolabs 6060; host or cells: insect cells
Outline: (§1)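 Reactions ran one hour at 30° C in 1% DMSO with enzyme diluted in 50 mM Tris-HCl pH 8.0, 0.1% BSA. Scintillation counting read ^33P incorporated into immobilized biotinylated peptide.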

[2] = test system: HeLa cervical adenocarcinoma; test: Inhibition of Cell Proliferation (14C-thymidine incorporation), HeLa; type: cell-based; settings: Homo sapiens, HeLa cell line
Outline: (§2)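 After seeding at 3000-8000 cells per well and a 24 h rest, compound is added and cells incubate 24 h; radiolabelled thymidine (0.2 uCi/well) then goes in for another 24 h. Washed wells are counted for incorporated 14C, relative to DMSO-only wells.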

[3] = molecular target: T2, HER2 (human epidermal growth factor receptor-2) (Homo sapiens, UniProt P04626); test: Kinase Selectivity Assay HER2; type: biochemical
T2 construct: begins at amino acid 676 followed by the remainder of the HER2 cytoplasmic domain; polyhistidine (N)
Outline: as §1

[4] = molecular target: Insulin Receptor Kinase (Homo sapiens, UniProt P06213); test: Kinase Selectivity Assay Insulin Receptor Kinase; type: biochemical; settings: Kinase Selectivity, Tables 2a-2k; read-out: Insulin R Kinase IC50
Outline: as §1

[5] = test system: HCT-116 colon carcinoma; test: Inhibition of Cell Proliferation (14C-thymidine incorporation), HCT-116; type: cell-based; settings: Homo sapiens, HCT-116 cell line
Outline: as §2

[6] = molecular target: T3, Protein Kinase A (Bos taurus, UniProt P00517); test: Kinase Selectivity Assay Protein Kinase A; type: biochemical, bovine; settings: Kinase Selectivity, Tables 2a-2k; read-out: PKA IC50
T3 construct: purified from bovine heart; purchased Upstate Biotech 14-114; host or cells: bovine heart
Outline: as §1

[7] = molecular target: T4, MAP Kinase (ERK-2 isoform) (Rattus norvegicus, UniProt P63086); test: Kinase Selectivity Assay MAP Kinase (ERK-2); type: biochemical; settings: Kinase Selectivity, Tables 2a-2k; read-out: ERK 2 IC50
T4 construct: polyhistidine (N); host or cells: E. coli
Outline: as §1

[8] = test system: A375 malignant melanoma; test: Inhibition of Cell Proliferation (14C-thymidine incorporation), A375; type: cell-based; settings: Homo sapiens, A-375, A375 cell line
Outline: as §2

T2 sequence (P04626 676-1255 limits assumed): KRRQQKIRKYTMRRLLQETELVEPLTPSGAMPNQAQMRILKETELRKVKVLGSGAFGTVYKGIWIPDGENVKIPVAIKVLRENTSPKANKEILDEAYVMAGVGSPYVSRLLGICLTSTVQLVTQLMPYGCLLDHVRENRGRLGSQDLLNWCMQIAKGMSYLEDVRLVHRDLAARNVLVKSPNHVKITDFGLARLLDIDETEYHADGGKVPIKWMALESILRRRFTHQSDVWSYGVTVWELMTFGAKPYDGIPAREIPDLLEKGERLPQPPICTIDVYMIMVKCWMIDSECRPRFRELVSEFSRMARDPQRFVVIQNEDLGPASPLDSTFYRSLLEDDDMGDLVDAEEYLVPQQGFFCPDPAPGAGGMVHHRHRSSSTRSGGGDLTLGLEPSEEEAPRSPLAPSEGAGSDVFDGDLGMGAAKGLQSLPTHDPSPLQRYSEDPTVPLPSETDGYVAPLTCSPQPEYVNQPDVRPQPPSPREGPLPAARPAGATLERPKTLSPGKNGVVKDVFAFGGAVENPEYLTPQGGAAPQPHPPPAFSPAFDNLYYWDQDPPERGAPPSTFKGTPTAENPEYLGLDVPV
Sequence of Insulin Receptor Kinase (P06213 980-1352): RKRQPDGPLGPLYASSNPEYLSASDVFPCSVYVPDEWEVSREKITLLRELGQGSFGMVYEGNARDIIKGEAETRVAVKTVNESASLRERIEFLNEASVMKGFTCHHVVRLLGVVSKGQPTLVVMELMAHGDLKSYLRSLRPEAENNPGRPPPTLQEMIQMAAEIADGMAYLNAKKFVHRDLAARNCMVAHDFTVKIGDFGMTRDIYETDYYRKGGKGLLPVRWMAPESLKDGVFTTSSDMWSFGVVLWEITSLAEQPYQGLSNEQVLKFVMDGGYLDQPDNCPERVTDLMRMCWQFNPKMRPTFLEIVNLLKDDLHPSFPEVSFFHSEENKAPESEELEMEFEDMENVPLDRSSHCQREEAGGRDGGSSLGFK
T4 sequence (P63086 whole entry, canonical isoform): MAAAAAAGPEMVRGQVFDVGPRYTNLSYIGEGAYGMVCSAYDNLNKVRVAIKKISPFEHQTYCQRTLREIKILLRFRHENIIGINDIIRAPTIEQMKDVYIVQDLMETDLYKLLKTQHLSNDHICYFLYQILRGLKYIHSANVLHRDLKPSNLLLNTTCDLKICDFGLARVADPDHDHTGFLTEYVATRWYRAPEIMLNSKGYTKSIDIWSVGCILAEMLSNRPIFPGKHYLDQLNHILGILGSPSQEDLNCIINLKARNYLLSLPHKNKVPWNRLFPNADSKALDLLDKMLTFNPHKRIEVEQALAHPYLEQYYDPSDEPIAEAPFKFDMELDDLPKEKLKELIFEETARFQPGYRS

Cc1ccsc1C(=O)n1nc(Nc2ccc(N3CCCS3(=O)=O)cc2)nc1N [Cpd 116, N^3-[4-(1,1-dioxido-2-isothiazolidinyl)phenyl]-1-[(3-methyl-2-thienyl)carbonyl]-1H-1,2,4-triazole-3,5-diamine]
IC50 [1]: > 100000 nM | IC50 [2]: 380 nM | IC50 ([3]; Kinase Selectivity, Tables 2a-2k, read-out: HER2 Kinase IC50): 131 nM | IC50 ([3]; Table 1, read-out: HER2 IC50): 131 nM | IC50 [4]: > 100000 nM | IC50 [5]: 349 nM | IC50 [6]: > 100000 nM | IC50 [7]: > 100000 nM | IC50 [8]: 639 nM
